Measured values reported in the CheMixHub viscosity set.

Experiment: xn = mol fraction of the nth substance listed

CCOC(=O)CCl + Brc1ccccc1
viscosity [mPa·s], 101.3 kPa
Details	x1 = 0.1089	x1 = 0.2034	x1 = 0.3024	x1 = 0.3976	x1 = 0.5011	x1 = 0.6018	x1 = 0.6992	x1 = 0.7963	x1 = 0.8948
298.15 K	1.079	1.079	1.08	1.082	1.085	1.087	1.092	1.096	1.098
303.15 K	1.012	1.011	1.01	1.011	1.012	1.014	1.017	1.018	1.01
308.15 K	0.947	0.943	0.94	0.938	0.938	0.942	0.941	0.941	0.939

CCCCCCCCN(CCCCCCCC)CCCCCCCC + C1CCCCC1
303.15 K, 101 kPa
Details	viscosity [mPa·s]
x2 = 0.1179	6.488
x2 = 0.1582	6.33
x2 = 0.3086	5.344
x2 = 0.4099	4.83
x2 = 0.5029	4.33
x2 = 0.6074	3.468
x2 = 0.7022	2.757
x2 = 0.8023	2.054
x2 = 0.902	1.416

CCCCOCCO + C1CCCCC1
viscosity [mPa·s], 101 kPa
Details	298.15 K	308.15 K
x1 = 0.0557	0.95	0.79
x1 = 0.1501	1.046	0.866
x1 = 0.2504	1.162	0.958
x1 = 0.3543	1.3	1.066
x1 = 0.4488	1.443	1.178
x1 = 0.5025	1.532	1.248
x1 = 0.5493	1.616	1.313
x1 = 0.6485	1.813	1.465
x1 = 0.7494	2.043	1.642
x1 = 0.8511	2.311	1.848
x1 = 0.9556	2.631	2.091

COC(=O)c1ccccc1 + C1CCCCC1
101 kPa, x1 = 0.5996
Details	viscosity [mPa·s]
303.15 K	0.9344
308.15 K	0.8826
313.15 K	0.8403

c1ccc2c(c1)CCCC2 + C1CCCCC1
298.15 K, 101 kPa
Details	viscosity [mPa·s]
x1 = 0.1649	0.9811
x1 = 0.3447	1.127
x1 = 0.5442	1.324
x1 = 0.7597	1.619

C=CC(=O)OC(C)(C)C + C1CCOC1
viscosity [mPa·s], 101 kPa
Details	293.15 K	298.15 K	303.15 K	308.15 K	313.15 K	318.15 K
x2 = 0.0736	0.8645	0.7935	0.7273	0.6717	0.622	0.579
x2 = 0.1489	0.8229	0.757	0.6954	0.6433	0.5964	0.5554
x2 = 0.2121	0.7896	0.7278	0.6699	0.6206	0.5759	0.5365
x2 = 0.2773	0.7568	0.6992	0.6449	0.5984	0.5558	0.5179
x2 = 0.362	0.7164	0.664	0.6143	0.5711	0.5312	0.495
x2 = 0.4382	0.6823	0.6343	0.5886	0.5482	0.5105	0.4758
x2 = 0.5024	0.6551	0.6107	0.5681	0.53	0.494	0.4604
x2 = 0.5815	0.6237	0.5835	0.5446	0.5091	0.475	0.4427
x2 = 0.6532	0.597	0.5605	0.5247	0.4914	0.4589	0.4276
x2 = 0.7268	0.5716	0.5385	0.5058	0.4745	0.4435	0.4131
x2 = 0.7921	0.5505	0.5204	0.4902	0.4607	0.4308	0.4012
x2 = 0.8698	0.5273	0.5006	0.4732	0.4455	0.4168	0.3879
x2 = 0.9352	0.5094	0.4853	0.4601	0.4337	0.4059	0.3776

COC(=O)c1ccccc1 + C1CCOC1
viscosity [mPa·s], 100 kPa
Details	x1 = 0.0689	x1 = 0.1417	x1 = 0.2202	x1 = 0.303	x1 = 0.3932	x1 = 0.493	x1 = 0.6018	x1 = 0.7225	x1 = 0.8535
303.15 K	0.496	0.562	0.638	0.727	0.829	0.951	1.096	1.262	1.446
308.15 K	0.484	0.546	0.616	0.699	0.79	0.904	1.032	1.181	1.343
313.15 K	0.443	0.505	0.567	0.641	0.729	0.83	0.943	1.078	1.22

CCCCCCBr + C1COCCO1
303.15 K, 101.3 kPa
Details	viscosity [mPa·s]
x2 = 0.1105	0.8848
x2 = 0.3021	0.8777
x2 = 0.4972	0.9007
x2 = 0.698	0.947
x2 = 0.8997	1.03

COC(=O)c1ccccc1 + C1COCCO1
viscosity [mPa·s], 100 kPa
Details	x1 = 0.0898	x1 = 0.1468	x1 = 0.228	x1 = 0.3145	x1 = 0.4054	x1 = 0.5056	x1 = 0.6161	x1 = 0.7316	x1 = 0.8597
303.15 K	1.13	1.157	1.198	1.244	1.293	1.352	1.418	1.491	1.573
308.15 K	1.038	1.066	1.106	1.147	1.192	1.246	1.308	1.376	1.449
313.15 K	0.984	1.006	1.04	1.075	1.11	1.157	1.208	1.263	1.324

CCCCCCBr + C=C(C)C(=O)OC
303.15 K, 101 kPa
Details	viscosity [mPa·s]
x2 = 0.1439	0.8087
x2 = 0.2632	0.7611
x2 = 0.4885	0.6895
x2 = 0.5904	0.6665
x2 = 0.6826	0.6354
x2 = 0.8513	0.5709
x2 = 0.9171	0.5459

CCOCCOCCOCC + CC1COC(=O)O1
viscosity [mPa·s], 101.33 kPa
Details	298.15 K	308.15 K	318.15 K
x1 = 0.013	2.474	2.024	1.703
x1 = 0.0542	2.418	1.982	1.658
x1 = 0.1089	2.353	1.923	1.605
x1 = 0.1594	2.288	1.875	1.555
x1 = 0.2136	2.225	1.827	1.506
x1 = 0.257	2.179	1.782	1.466
x1 = 0.3304	2.08	1.702	1.39
x1 = 0.4267	1.94	1.589	1.297
x1 = 0.497	1.833	1.504	1.227
x1 = 0.5874	1.717	1.404	1.152
x1 = 0.6907	1.589	1.306	1.076
x1 = 0.7876	1.474	1.219	1.01
x1 = 0.8704	1.377	1.148	0.957
x1 = 0.9264	1.316	1.101	0.922
x1 = 0.9628	1.289	1.071	0.901

C=CC(=O)OC(C)(C)C + CC#N
viscosity [mPa·s], 100 kPa
Details	293.15 K	298.15 K	303.15 K	308.15 K	313.15 K	318.15 K
x2 = 0.0772	0.8592	0.787	0.72	0.664	0.6141	0.571
x2 = 0.1496	0.8154	0.7472	0.684	0.631	0.5837	0.5427
x2 = 0.2216	0.7728	0.7087	0.6493	0.5994	0.5548	0.5161
x2 = 0.2983	0.7282	0.6684	0.6132	0.5668	0.5252	0.489
x2 = 0.3643	0.6903	0.6344	0.5828	0.5393	0.5003	0.4663
x2 = 0.4345	0.6506	0.5988	0.5511	0.5107	0.4745	0.4426
x2 = 0.5074	0.61	0.5624	0.5187	0.4816	0.4481	0.4186
x2 = 0.5769	0.5719	0.5284	0.4885	0.4544	0.4236	0.3963
x2 = 0.6465	0.5345	0.495	0.459	0.4278	0.3997	0.3746
x2 = 0.7141	0.4991	0.4635	0.4312	0.403	0.3775	0.3546
x2 = 0.7821	0.4645	0.4329	0.4044	0.3793	0.3565	0.3358
x2 = 0.8603	0.4264	0.3994	0.3753	0.354	0.3344	0.3164
x2 = 0.9345	0.3923	0.3699	0.3502	0.3324	0.3162	0.301

COC(=O)c1ccccc1 + CC#N
viscosity [mPa·s], 101.33 kPa
Details	x1 = 0.134	x1 = 0.255	x1 = 0.373	x1 = 0.48	x1 = 0.57	x1 = 0.666	x1 = 0.752	x1 = 0.837	x1 = 0.922
293.15 K	0.444	0.476	0.515	0.624	0.676	0.805	0.958	1.128	1.508
303.15 K	0.4	0.43	0.46	0.551	0.595	0.695	0.814	0.95	1.226
313.15 K	0.365	0.387	0.41	0.5	0.521	0.608	0.701	0.811	1.016
323.15 K	0.329	0.351	0.367	0.446	0.467	0.531	0.602	0.691	0.854

CC(C)OCCO + CC(=O)N(C)C
298.15 K, 101 kPa
Details	viscosity [mPa·s]
x1 = 0.0063	0.956
x1 = 0.014	0.97
x1 = 0.0243	0.983
x1 = 0.0518	1.016
x1 = 0.0792	1.049
x1 = 0.1131	1.092
x1 = 0.1712	1.167
x1 = 0.2095	1.225
x1 = 0.2923	1.336
x1 = 0.3534	1.422
x1 = 0.3673	1.443
x1 = 0.3996	1.494
x1 = 0.4419	1.555
x1 = 0.4958	1.63
x1 = 0.5445	1.704
x1 = 0.6028	1.782
x1 = 0.6671	1.871
x1 = 0.7594	1.973
x1 = 0.8097	2.044
x1 = 0.867	2.083
x1 = 0.9066	2.098
x1 = 0.9627	2.102
x2 = 0.006	2.106
x2 = 0.0146	2.105

CNC=O + CC(=O)N(C)C
viscosity [mPa·s], 101 kPa
Details	x2 = 0.0697	x2 = 0.0811	x2 = 0.1686	x2 = 0.2571	x2 = 0.3498	x2 = 0.4488	x2 = 0.545	x2 = 0.6533	x2 = 0.7606	x2 = 0.8777
293.15 K	1.824	1.81	1.709	1.612	1.516	1.422	1.337	1.252	1.176	1.101
303.15 K	1.543	1.532	1.452	1.374	1.296	1.219	1.151	1.083	1.021	0.962
313.15 K	1.325	1.316	1.252	1.188	1.125	1.063	1.007	0.95	0.9	0.85
323.15 K	1.157	1.149	1.096	1.044	0.991	0.94	0.893	0.846	0.803	0.762
